The NIST ThermoML archive (doi:10.1016/j.fluid.2014.07.002)

Test: mean ionic activity coefficient (dimensionless); mn = molality of the nth substance listed, in mol/kg
Settings: 298.2 K, 101 kPa, Liquid, potentionmetric method

[Cl-].[Na+] [sodium chloride] + O
Settings | mean ionic activity coefficient
m1 = 0.001 | 0.965
m1 = 0.0101 | 0.902
m1 = 0.0502 | 0.82
m1 = 0.0993 | 0.777
m1 = 0.2495 | 0.718
m1 = 0.4993 | 0.68
m1 = 0.7496 | 0.663
m1 = 0.9996 | 0.655
m1 = 1.249 | 0.654
m1 = 1.5 | 0.656
m1 = 1.749 | 0.66
m1 = 1.999 | 0.667
m1 = 2.499 | 0.687
m1 = 3 | 0.713
